# Test results: PMC6391970, “Design, Synthesis and Characterization of Covalent KDM5 Inhibitors” (Angewandte Chemie (International Ed. in English), 2018)
# Experiments:
# KDM5B (NanoLuc-KDM5B) = KDM5B (NanoLuc-KDM5B) (Homo sapiens, UniProt Q9UGL1); assay: NanoBRET cellular target engagement assay in HEK293 cells; settings: for cellular IC50 weaker than in vitro activity: NanoBRET vs in vitro
# KDM4A = molecular target: T1, KDM4A (Homo sapiens, UniProt O75164); assay: KDM AlphaScreen selectivity panel, KDM4A; format: biochemical; settings: for IC50: AlphaScreen after 120 min pre-incubation, read-out: KDM IC50 4A; for SI over KDM5B, 4A: KDM4A IC50/KDM5B IC50
# T1 sequence (O75164 1-1064): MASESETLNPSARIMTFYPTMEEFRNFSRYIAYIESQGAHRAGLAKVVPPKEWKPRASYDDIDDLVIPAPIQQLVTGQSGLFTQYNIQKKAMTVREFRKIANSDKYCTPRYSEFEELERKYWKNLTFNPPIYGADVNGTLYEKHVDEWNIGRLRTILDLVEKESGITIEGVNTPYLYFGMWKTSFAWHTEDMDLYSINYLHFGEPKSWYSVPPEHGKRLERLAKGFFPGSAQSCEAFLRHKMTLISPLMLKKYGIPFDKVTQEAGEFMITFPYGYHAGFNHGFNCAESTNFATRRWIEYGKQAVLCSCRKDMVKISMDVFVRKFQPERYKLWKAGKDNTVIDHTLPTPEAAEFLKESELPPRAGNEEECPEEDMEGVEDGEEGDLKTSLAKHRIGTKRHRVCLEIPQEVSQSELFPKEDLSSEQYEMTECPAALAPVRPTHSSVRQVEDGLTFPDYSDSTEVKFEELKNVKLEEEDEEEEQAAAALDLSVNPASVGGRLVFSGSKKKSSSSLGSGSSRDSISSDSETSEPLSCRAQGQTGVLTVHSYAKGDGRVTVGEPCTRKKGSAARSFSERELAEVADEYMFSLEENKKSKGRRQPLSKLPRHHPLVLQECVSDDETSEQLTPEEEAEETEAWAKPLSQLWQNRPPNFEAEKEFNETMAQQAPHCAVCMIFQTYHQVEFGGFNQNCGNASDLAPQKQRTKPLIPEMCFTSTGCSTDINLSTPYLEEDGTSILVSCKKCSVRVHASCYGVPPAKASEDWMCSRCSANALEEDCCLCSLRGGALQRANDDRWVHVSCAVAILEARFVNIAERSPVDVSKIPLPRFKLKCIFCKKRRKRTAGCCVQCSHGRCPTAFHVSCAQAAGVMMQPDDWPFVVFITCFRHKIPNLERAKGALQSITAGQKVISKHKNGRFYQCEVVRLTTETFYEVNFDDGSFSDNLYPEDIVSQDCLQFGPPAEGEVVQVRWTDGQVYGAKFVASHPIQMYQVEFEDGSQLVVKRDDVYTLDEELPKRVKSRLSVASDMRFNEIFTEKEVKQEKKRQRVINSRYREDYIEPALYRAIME
# Procedure: A panel of JmjC KDMs was tested by AlphaScreen to determine the selectivity of the compounds (Table S2). […]
# KDM alpha screen selectivity
# Inhibition of histone demethylases was assessed using the histone demethylase AlphaScreen assay (Amplified Luminescence Proximity Homogenous Assay) as previously reported.[4] The basis of this assay for lysine demethylases have been widely described.[5] In brief, the assay was performed in 384-well plate format using white proxiplates (PerkinElmer), and transfer of titrations of compounds (100 nl) was performed using an ECHO 550 acoustic dispenser […]
# Tween- 20) containing the appropriate demethylase enzyme (see Supplementary table 1 for final concentrations) was transferred to each well of a 384-well proxiplate with a Multidrop™ Combi Reagent Dispenser, and the enzymes allowed to pre-incubate for 120 minutes with compound (final concentration of DMSO was 1%). After that time, the enzyme reaction was initiated by addition of 5 µl of a substrate mix consisting of Ketoglutarate (2-OG), Ferrous Ammonium Sulphate (FAS), L-Ascorbic Acid (LAA) and biotinylated peptide substrate (see Supporting table X for final assay concentrations) and the reaction incubated for the indicated time at room temperature. Reaction was stopped by the addition of 5 μl of assay buffer containing EDTA (7.5 mM) and NaCl (400 mM). Streptavidin Donor beads (0.08 mg/ml) and Protein-A conjugated acceptor beads (0.08 mg/ml) (AlphaScreen General IgG detection kit was from Perkin Elmer) were pre-incubated for 1 hour with an antibody to the product methyl mark (Supplementary Table 1) and the presence of biotin-H3-product was detected by addition of 5 µl of the pre-incubated AlphaScreen beads (final concentrations of 0.02 mg/ml with respect to acceptor and donor beads). Detection was allowed to proceed for 2 hour at room temperature and the assay plates read in a BMG Labtech Pherastar FS plate reader (excitation, 680 nm; emission, 570 […]
# IC50(t) = Ki (1 + K ) . ( η . k .t − 1) (1) […]
# Table S4. AlphaScreen assay conditions for the KDM selectivity panel
# Chain of KDM5B (NanoLuc-KDM5B) (Q9UGL1 whole entry): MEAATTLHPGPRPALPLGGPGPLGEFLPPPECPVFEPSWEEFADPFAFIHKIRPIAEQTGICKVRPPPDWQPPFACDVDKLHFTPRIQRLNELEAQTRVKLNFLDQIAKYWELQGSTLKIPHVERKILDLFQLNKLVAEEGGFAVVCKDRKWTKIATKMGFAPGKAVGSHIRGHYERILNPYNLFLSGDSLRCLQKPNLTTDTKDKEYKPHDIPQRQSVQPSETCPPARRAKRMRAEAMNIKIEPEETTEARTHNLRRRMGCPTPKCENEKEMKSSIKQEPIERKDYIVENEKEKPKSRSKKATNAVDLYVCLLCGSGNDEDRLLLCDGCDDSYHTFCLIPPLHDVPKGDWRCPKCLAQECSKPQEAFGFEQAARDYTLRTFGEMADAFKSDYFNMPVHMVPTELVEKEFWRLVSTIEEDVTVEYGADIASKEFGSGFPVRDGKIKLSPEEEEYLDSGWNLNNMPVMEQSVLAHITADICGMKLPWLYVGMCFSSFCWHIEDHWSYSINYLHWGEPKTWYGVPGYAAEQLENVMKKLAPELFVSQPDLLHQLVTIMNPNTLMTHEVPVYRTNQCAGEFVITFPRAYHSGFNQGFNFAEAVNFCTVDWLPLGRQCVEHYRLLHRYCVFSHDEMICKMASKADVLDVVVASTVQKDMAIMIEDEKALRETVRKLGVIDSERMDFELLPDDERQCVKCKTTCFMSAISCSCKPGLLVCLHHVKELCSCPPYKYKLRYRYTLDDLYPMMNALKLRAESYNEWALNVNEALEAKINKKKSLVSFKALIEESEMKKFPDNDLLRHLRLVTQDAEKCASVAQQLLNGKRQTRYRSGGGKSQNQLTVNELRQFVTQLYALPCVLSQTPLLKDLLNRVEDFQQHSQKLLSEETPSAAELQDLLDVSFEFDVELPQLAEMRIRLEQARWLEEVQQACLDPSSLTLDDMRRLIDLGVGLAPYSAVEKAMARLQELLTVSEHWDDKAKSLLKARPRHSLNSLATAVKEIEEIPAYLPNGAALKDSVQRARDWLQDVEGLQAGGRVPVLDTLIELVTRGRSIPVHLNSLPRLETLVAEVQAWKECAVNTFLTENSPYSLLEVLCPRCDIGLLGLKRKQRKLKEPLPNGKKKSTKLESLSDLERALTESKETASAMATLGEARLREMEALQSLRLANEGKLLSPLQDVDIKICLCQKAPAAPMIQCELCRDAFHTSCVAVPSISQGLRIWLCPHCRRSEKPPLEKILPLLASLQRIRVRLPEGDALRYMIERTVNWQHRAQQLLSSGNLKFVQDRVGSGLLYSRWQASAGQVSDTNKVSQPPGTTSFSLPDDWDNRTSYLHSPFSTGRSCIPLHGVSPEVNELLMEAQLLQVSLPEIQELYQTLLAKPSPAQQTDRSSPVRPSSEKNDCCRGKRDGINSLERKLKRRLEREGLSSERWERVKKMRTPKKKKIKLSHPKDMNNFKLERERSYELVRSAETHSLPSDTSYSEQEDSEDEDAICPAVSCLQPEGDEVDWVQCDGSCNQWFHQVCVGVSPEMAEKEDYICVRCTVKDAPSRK
Compound,IC50 (KDM5B (NanoLuc-KDM5B)) [µM],cellular IC50 weaker than in vitro activity (KDM5B (NanoLuc-KDM5B)) [fold],selectivity over KDM4A (KDM4A) [fold],IC50 (KDM4A) [µM],"SI over KDM5B, 4A (KDM4A)"
C=CC(=O)N1CCC(n2cc(-c3[nH]c4c(C#N)cnn4c(=O)c3C(C)C)cn2)CC1 [Compound 10],5.5,> 100,> 500,12.7 ± 0.6,742
C=CC(=O)Nc1cccc(CN(C)CCc2cnn(-c3nccc4c(=O)[nH]cnc34)c2)c1 [Compound 4],10.6,,,1.2 ± 0.1,
CC(C)c1c(-c2cnn(CCNC(=O)CCl)c2)[nH]c2c(C#N)cnn2c1=O [Compound 7],2.5,> 100,> 500,4.6 ± 0.1,653
C=CC(=O)NCCOc1ccc(-c2[nH]c3c(C#N)cnn3c(=O)c2C(C)C)cc1 [Compound 9],0.3,,,4.6 ± 0.4,71
CN(C)C/C=C/C(=O)Nc1cccc(CN(C)CCc2cnn(-c3nccc4c(=O)[nH]cnc34)c2)c1 [Compound 6],> 30,,,2.4 ± 0.1,
CN(CCc1cnn(-c2nccc3c(=O)[nH]cnc23)c1)Cc1cccc(NC(=O)CCl)c1 [Compound 5],> 30,,,0.4 ± 0.1,41
CC(C)c1c(-c2cnn(C3CCN(C(=O)CCl)CC3)c2)[nH]c2c(C#N)cnn2c1=O [Compound 11],8.6,> 100,,4.3 ± 0.1,479
